Experimental data as given in patent publication US12344603B2 (Genentech, Inc., priority 2020, dated 2025).
Structures can show the parent of a compound that is named as a salt.

Biological target: IRE1α (Homo sapiens (Human), UniProt O75460, D688N)
Test: IRE1α TR-FRET competition binding assay (IRE1α HTRF)
Conditions: TR-FRET competition binding to kinase domain of IRE1α
Procedure: IRE1α TR-FRET Competition Binding Assay. The affinity of compound binding to the kinase domain of IRE1α was determined using a time-resolved fluorescence resonance energy transfer (TR-FRET) competition assay.
The purified protein (final concentration 0.25 nM) was pre-incubated with anti-His Europium labeled antibody (Life Technologies PV5596, final concentration 2 nM) for one hour at 4° C. in TR-FRET Assay Buffer (50 mM HEPES, pH 7.5, 10 mM MgCl2, 0.083 mM Brij 35, 1 mM DTT, and 0.1% bovine gamma globulin) prior to addition to test compounds. An Alexa fluor 647-labeled probe based on an ATP competitive inhibitor was added to a final concentration of 2 nM. Reactions were carried out for one hour at room temperature in a final volume of 20 μL in 384 well white ProxiPlates (Perkin Elmer 6008289). Binding of the probe to the IRE1α protein was detected in an Envision instrument (PerkinElmer) equipped with a TRF laser option and a LANCE/Delfia Dual/Bias D400/D630 mirror (Ex 347 nm, 1st Em 665 nm, 2nd Em 615 nm).

IRE1α, sequence (O75460 547-977 D688N): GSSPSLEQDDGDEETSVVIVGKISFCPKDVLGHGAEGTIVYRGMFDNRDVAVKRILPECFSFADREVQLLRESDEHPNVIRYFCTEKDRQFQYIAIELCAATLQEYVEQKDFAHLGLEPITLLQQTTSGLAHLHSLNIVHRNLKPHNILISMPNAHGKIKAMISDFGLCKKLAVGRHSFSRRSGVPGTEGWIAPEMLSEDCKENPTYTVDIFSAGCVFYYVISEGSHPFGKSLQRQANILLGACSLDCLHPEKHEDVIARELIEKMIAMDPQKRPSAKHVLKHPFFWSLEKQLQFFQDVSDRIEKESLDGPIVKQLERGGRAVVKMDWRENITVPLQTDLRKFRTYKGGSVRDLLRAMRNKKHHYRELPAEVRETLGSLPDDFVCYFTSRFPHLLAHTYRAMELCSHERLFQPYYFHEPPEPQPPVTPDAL

Row | IC50 | Compound
1 | 26 nM | CC(C)n1c(=O)c(-c2ccc(NS(=O)(=O)CCC(F)(F)F)c(F)c2)cc2cnc(N[C@H]3CCC[C@H](N)C3)nc21 [Compound 103, N-(4-(2-(((1S,3S)-3-Aminocyclohexyl)amino)-8-isopropyl-7-oxo-7,8-dihydropyrido[2,3-d]pyrimidin-6-yl)-2-fluorophenyl)-3,3,3-trifluoropropane-1-sulfonamide]
2 | 0.3 nM | CC(C)n1c(=O)c(-c2ccc(NS(=O)(=O)CCC(F)(F)F)c(F)c2)cc2cnc(N[C@@H]3CNC[C@@H](F)C3)nc21 [Compound 92, 3,3,3-Trifluoro-N-(2-fluoro-4-(2-(((3S,5S)-5-fluoropiperidin-3-yl)amino)-8-isopropyl-7-oxo-7,8-dihydropyrido[2,3-d]pyrimidin-6-yl)phenyl)propane-1-sulfonamide]
3 | 0.1 nM | CC(C)n1c(=O)c(-c2cc(F)c(NS(=O)(=O)Cc3ccc(F)cc3)c(F)c2)nc2cnc(N[C@H]3CC[C@H](N(C)C)CC3)nc21 [Example 245, N-[4-[2-[[4-(Dimethylamino)cyclohexyl]amino]-8-isopropyl-7-oxo-pteridin-6-yl]-2,6-difluoro-phenyl]-1-(4-fluorophenyl)methanesulfonamide]
4 | 16 nM | CC(C)Nc1ncc2cc(-c3cc(F)c(NS(=O)(=O)CCC(F)(F)F)c(F)c3F)c(=O)n(C(C)C)c2n1 [Compound 21, 3,3,3-Trifluoro-N-(2,3,6-trifluoro-4-(8-isopropyl-2-(isopropylamino)-7-oxo-7,8-dihydropyrido[2,3-d]pyrimidin-6-yl)phenyl)propane-1-sulfonamide]
5 | 5 nM | CCn1c(=O)c(-c2ccc(NS(=O)(=O)CCC(F)(F)F)c(F)c2F)cc2cnc(N[C@@H]3CNC[C@@H](F)C3)nc21 [Compound 14, N-(4-(8-Ethyl-2-(((3S,5S)-5-fluoropiperidin-3-yl)amino)-7-oxo-7,8-dihydropyrido[2,3-d]pyrimidin-6-yl)-2,3-difluorophenyl)-3,3,3-trifluoropropane-1-sulfonamide]
6 | 0.2 nM | CC(C)n1c(=O)c(-c2ccc(NS(=O)(=O)CCC3(C)CC3)c(F)c2)cc2cnc(N[C@H]3CC[C@H](N(C)C)CC3)nc21 [Example 230, N-(4-(2-(((1r,4r)-4-(dimethylamino)cyclo-hexyl)amino)-8-isopropyl-7-oxo-7,8-dihydropyrido[2,3-d]-pyrimidin-6-yl)-2-fluorophenyl)-2-(1-methylcyclopropyl)-ethane-1-sulfonamide]
7 | 0.69 nM | CC(C)n1c(=O)c(-c2c(F)cc(NS(=O)(=O)CCC(F)(F)F)cc2F)nc2cnc(N[C@H]3CC[C@H](N(C)C)CC3)nc21 [Compound 169, N-(4-(2-(((1r,4r)-4-(Dimethylamino)cyclohexyl)amino)-8-isopropyl-7-oxo-7,8-dihydropteridin-6-yl)-3,5-difluorophenyl)-3,3,3-trifluoropropane-1-sulfonamide]
8 | 11 nM | CC(C)n1c(=O)c(-c2ccc(F)c(NS(=O)(=O)Cc3ccccc3)c2)cc2cnc(N[C@H]3CCCNC3)nc21 [Compound 17, (S)—N-(2-Fluoro-5-(8-isopropyl-7-oxo-2-(piperidin-3-ylamino)-7,8-dihydropyrido[2,3-d]pyrimidin-6-yl)phenyl)-1-phenylmethanesulfonamide hydrochloride]
9 | 5.8 nM | CC(C)n1c(=O)c(-c2cccc(NS(=O)(=O)Cc3ccccc3)c2F)cc2cnc(N[C@H]3CCCNC3)nc21 [Compound 16, (S)—N-(2-Fluoro-3-(8-isopropyl-7-oxo-2-(piperidin-3-ylamino)-7,8-dihydropyrido[2,3-d]pyrimidin-6-yl)phenyl)-1-phenylmethanesulfonamide]
10 | 0.2 nM | CC(C)n1c(=O)c(-c2cc(F)c(NS(=O)(=O)CCC(C)(F)F)c(F)c2)nc2cnc(N[C@H]3CC[C@H](N(C)C)CC3)nc21 [Example 241, N-[4-[2-[[4-(Dimethylamino)cyclohexyl]amino]-8-isopropyl-7-oxo-pteridin-6-yl]-2,6-difluoro-phenyl]-3,3-difluoro-butane-1-sulfonamide]
